# According to PMC8068134 (Toxins, 2021):
# Read-outs that look alike come from different tables or passages of the source. Numbered stars: 1 amine (or outer) side, 2 acyl side, 3 side chain; on linkers, the order of the positions; unused ones are H or OH. Bridge positions count the residues as written; N and C are the ends. Square brackets hold non-standard residues; d marks the D form. Peptide text beside a SMILES is read from it. hTyr = N[C@@H](CCc1ccc(O)cc1)C(=O)O; NMeA = CN[C@@H](C)C(=O)O; CO = O=C([*:1])[*:2]
# Tests used:
# [1] = physchem; type: physicochemical; conditions: cells or culture medium, 3rd day, mean ± SD, n = 3, read-out: Peptide Remaining Concentration (%), Negative Control, 3rd Day
# Protocol: OD-corrected P. toxinivorans was transferred to the 96-well microplate in a solution with fresh culture media and individual peptides. For all experimental conditions, microplates were prepared to allow different sampling times over 7 days of incubation in a shaker incubator at 150 rpm and 28 °C. Three different plates were initially prepared maintaining the same conditions, and they were, respectively, taken to be considered as sampling time at 0, 3, and 7th days. This procedure was established in order to sample only once from each well to avoid the effect of differing volumes and potential contamination. At each sampling time, 150 µL were taken and added to 150 µL of 80% aqueous methanol solution with 2% formic acid (in a 1.5 mL centrifuge tube) in order to kill bacteria and stop their metabolism, as well as to precipitate large proteins, which could affect analytical procedures. Samples were centrifuged for 15 min at 13,000× g. Supernatants were recovered, 1:10 diluted (100:900 μL) in aqueous methanol 80% and stored at −20 °C until ultrahigh performance liquid chromatography coupled to mass spectrometry analysis (UPLC–MS). This experimental design was applied in all experiments in order to evaluate the biodegradation of peptides by P. toxinivorans. All experimental conditions were carried out in biological replicates (n = 3) and with negative controls without bacteria.
# All peptides studied were analyzed by UPLC–PDA–MS/MS (Waters®, Manchester, UK) as described previously by Turner et al.. Briefly, chromatographic separation was carried out using a Waters ACQUITY UPLC BEH C18 column (1.7 µm, 2.1 × 100 mm) held at 60 °C. Samples were kept in the sample manager at 10 °C and the injection volume was 5 µL. Mobile phase consisted of (A) water + 0.025% formic acid and (B) acetonitrile + 0.025% formic acid at a flow rate of 0.6 mL/min. The gradient consisted of 2% B initial condition rising to 25% B at 0.5 min holding until 1.5 min, rising to 40% B at 3.0 min, increasing further to 50% B at 4 min, a quick rise to 95% B and 4.1 min and held until 4.5 min before dropping back to 2% B at 5 min. Detection wavelength was set at 238 nm. Mass spectrometric detection was performed with a triple quadrupole mass spectrometer (Waters Xevo TQ-XS, Manchester, UK) equipped with an electrospray ionization (ESI) interface operating in positive ionization mode. Operational parameters were as follow: 150 °C source temperature, 600 °C desolvation temperature, 600 L/h desolvation gas flow (N2), 150 L/h cone gas flow, and 0.15 mL/min collision gas flow (Ar). Capillary voltage was held at 1.0 kV. Multiple Reaction Monitoring (MRM) transitions used as well as retention time, chemical structure, and respective formula of peptides can be found in Table S2. […]
# [2] = enzymatic biodegradation product of Sphingopyxis sp. USTB05; conditions: cited from earlier work
# [3] = Y2 strain culture; individual peptide, peptide mix, and M. aeruginosa crude extract; conditions: Sphingosinicella microcystinivorans (Y2 strain)
# [4] = Paucibacter toxinivorans (2C20) culture in R2A media with cyanopeptide mix; conditions: Paucibacter toxinivorans 2C20 strain, 28 °C, up to 7 days
# [5] = enzymatic activity of a Sphingomonas species that possess mlr pathway; conditions: cited from earlier work
# [6] = Paucibacter toxinivorans (2C20) culture (OD600 0.4) in R2A media, pure MC-LR; conditions: Paucibacter toxinivorans 2C20 strain, 28 °C, up to 7 days
# [7] = Individual peptide, 10 μg/mL, UPLC-MS/MS
Compound,"remaining at 72 h [1, 7] [%]",not cleaved [3],also measured
"CSCC[C@@H]1NC(=O)[C@@H]2CSC(=N2)[C@@H](Cc2ccccc2)NC(=O)c2csc(n2)CNC(=O)[C@H]2N=C1O[C@@H]2C [AC-D, aerucyclamide D]",113 ± 1.6,–,–
"CC(C)[C@@H]1NC(=O)[C@H](NC(=O)N[C@@H](Cc2ccc(O)cc2)C(=O)O)CCCCNC(=O)[C@H](Cc2ccccc2)NC(=O)[C@H](C)N(C)C(=O)[C@H](CCc2ccc(O)cc2)NC1=O [ANBP-A, anabaenopeptin A] ({Tyr-CO}-[dK]V[hTyr][NMeA]F; lactam 1-C)",112 ± 8.1,–,–
Adda-Glu-Mdha-Ala-Tyr-Masp-Arg,–,did not degrade any cyanobacterial peptides,"fragment found [2]: linearized MC-YR (peptide C); cleaved bond [4]: Arg-Adda, day 7"
Adda-Glu-Mdha-Ala-Leu-Masp-Phe,–,did not degrade any cyanobacterial peptides,"cleaved bond [4]: Phe-Adda, day 7"
"CC[C@H](C)[C@@H]1NC(=O)[C@@H]2CSC(=N2)[C@@H]([C@@H](C)CC)NC(=O)c2csc(n2)CNC(=O)[C@H]2N=C1O[C@@H]2C [AC-A, aerucyclamide A]",–,–,"remaining at 72 h ([1]; In MIX: MC-LR 10 μg/mL, other cyanopeptides 1 µg/mL): 109 ± 5.6%"
Adda-Glu-Mdha-Ala-Leu-Masp-Arg,–,did not degrade any cyanobacterial peptides,"fragment found [5]: linearized MC-LR (biodegradation product A); cleaved bond [6]: Arg-Adda, day 3"
"CC(C)[C@@H]1NC(=O)[C@H](NC(=O)N[C@@H](CCCNC(=N)N)C(=O)O)CCCCNC(=O)[C@H](Cc2ccccc2)NC(=O)[C@H](C)N(C)C(=O)[C@H](CCc2ccc(O)cc2)NC1=O [ANBP-B, anabaenopeptin B] ({Arg-CO}-[dK]V[hTyr][NMeA]F; lactam 1-C)",100 ± 17.1,–,–
